Format in all cases: functional
Experiment [1] concerns Staphylococcus aureus. Nature of the experiment: Antibacterial activity against Staphylococcus aureus SG511 assessed as zone of inhibition after 24 hrs by disk diffusion method.
The subject of another experiment is Bacillus subtilis. Nature of the experiment: Antibacterial activity against Bacillus subtilis ATCC 6633 assessed as zone of inhibition after 24 hrs by disk diffusion method. A general note: Agar diffusion results depend on both activity and mobility in agar.
Experiment [2] deals with Pseudomonas aeruginosa. The experiment is described as follows: Antibacterial activity against Pseudomonas aeruginosa K799/61 assessed as zone of inhibition after 24 hrs by disk diffusion method.
Experiment [3] has as its system Pseudomonas aeruginosa. The experiment is described as follows: Antibacterial activity against Pseudomonas aeruginosa BG137 B7 assessed as zone of inhibition after 24 hrs by disk diffusion method.
Another experiment deals with Penicillium chrysogenum. Nature of the experiment: Antifungal activity against Penicillium chrysogenum JP36 assessed as zone of inhibition after 24 hrs by disk diffusion method.
The next experiment has as its system Escherichia coli. The experiment is described as follows: Antibacterial activity against Escherichia coli SG458 assessed as zone of inhibition after 24 hrs by disk diffusion method.
The next experiment deals with Enterococcus faecalis. The experiment is described as follows: Antibacterial activity against vancomycin-resistant Enterococcus faecalis 1528 R10 assessed as zone of inhibition after 24 hrs by disk diffusion method.
The next experiment has as its system Mycolicibacterium vaccae. The experiment is described as follows: Antibacterial activity against Mycobacterium vaccae IMET 10670 assessed as zone of inhibition after 24 hrs by disk diffusion method.
Experiment [4] deals with Sporobolomyces salmonicolor. The experiment is described as follows: Antifungal activity against Sporidiobolus salmonicolor SBUG 549 assessed as zone of inhibition after 24 hrs by disk diffusion method.
Experiment [5] concerns Staphylococcus aureus. Nature of the experiment: Antibacterial activity against methicillin-resistant Staphylococcus aureus 134/94 R9 assessed as zone of inhibition after 24 hrs by disk diffusion method.

Molecules are shown by their SMILES.

For `C[C@H]1CCC[C@@]2(C)CC[C@@H](O)C[C@]12O`, the “inhibition zone (IZ)” value stood at 0 mm with Staphylococcus aureus [1]; 10 mm with Bacillus subtilis; 10 mm in the experiment on Pseudomonas aeruginosa [2]; 10 mm with Pseudomonas aeruginosa [3]; 0 mm in the experiment on Penicillium chrysogenum; 10 mm with Escherichia coli. Besides, the “inhibition zone (IZ)” value (in the experiment on Enterococcus faecalis; in the experiment on Mycolicibacterium vaccae; in [4]; in the experiment with Staphylococcus aureus [5]) was 0 mm throughout.
Turning to `C[C@H]1C(=O)CC[C@@]2(C)CCCC[C@]12O`, the “inhibition zone (IZ)” value was found to be 0 mm with Staphylococcus aureus [1]; 10 mm with Bacillus subtilis; 10 mm with Pseudomonas aeruginosa [2]; 10 mm in the experiment with Pseudomonas aeruginosa [3]; 0 mm in the experiment on Penicillium chrysogenum; 0 mm in the experiment on Escherichia coli. Also, the “inhibition zone (IZ)” value in the experiment on Enterococcus faecalis is listed as 10 mm; in the experiment with Mycolicibacterium vaccae, 0 mm; in [4], 0 mm; in the experiment on Staphylococcus aureus [5] it was 0 mm.
For the compound `C[C@H]1CCC[C@@]2(C)CC[C@@H](C(C)(C)O)C[C@]12O`, the “inhibition zone (IZ)” value with Staphylococcus aureus [1] is reported as 12 mm; with Bacillus subtilis it was 12 mm; with Pseudomonas aeruginosa [2] it was 11 mm; in the experiment with Pseudomonas aeruginosa [3], 11 mm; with Penicillium chrysogenum, 12 mm; with Escherichia coli, 10 mm. The “inhibition zone (IZ)” value in the experiment with Enterococcus faecalis turned out to be 11 mm; with Mycolicibacterium vaccae, 14 mm; in experiment [4], 12 mm; in the experiment with Staphylococcus aureus [5] it was 11 mm.
As for `C[C@@H]1[C@H](O)[C@@H](C)/C=C/C=C/C=C/C=C/C=C/C=C/C=C/[C@H](O[C@@H]2O[C@H](C)[C@@H](O)[C@H](N)[C@@H]2O)C[C@@H]2O[C@](O)(C[C@@H](O)C[C@@H](O)[C@H](O)CC[C@@H](O)C[C@@H](O)CC(=O)O[C@H]1C)C[C@H](O)[C@H]2C(=O)O` [AMPHOTERICIN B], the “inhibition zone (IZ)” value is reported as 17 mm in the experiment on Penicillium chrysogenum, 13 mm with Mycolicibacterium vaccae and 13 mm in experiment [4].
As for `O=C(N[C@H](CO)[C@H](O)c1ccc([N+](=O)[O-])cc1)C(Cl)Cl` [CHLORAMPHENICOL], the “inhibition zone (IZ)” value in the experiment on Staphylococcus aureus [1] is 17 mm; in the experiment with Bacillus subtilis it was 29 mm; with Pseudomonas aeruginosa [2], 24 mm; with Pseudomonas aeruginosa [3], 24 mm; with Escherichia coli it was 23 mm; in the experiment on Enterococcus faecalis it was 17 mm. Moreover, the entries for the “inhibition zone (IZ)” value in the experiment with Mycolicibacterium vaccae and in the experiment on Staphylococcus aureus [5] were 20 mm and 0 mm, respectively.

Values taken from ChEMBL document CHEMBL4665683, “Oxygenated Geosmins and Plant-like Eudesmanes from a Bacterial Mangrove Endophyte” (2020).
